For assay [1], the system named is fibrinolytic activity (D-dimer level in plasma). Description: Test on combined use with u-PA: tissue factor-infused rats, plasma D-dimer level as index for fibrinolytic activity. It counts as in vivo, male Wistar rats. On the procedure: (1) u-PA (urokinase injection “Fuji” (registered trademark) 60,000, Wakamoto Co., Ltd.) was adjusted to 90 kU/mL with injectable water.
(2) Compound A was dissolved in saline to prepare a 1.0 mg/mL solution. The solution was further diluted to 0.0050 mg/mL using saline. The dose of compound A was indicated in terms of a free form (conversion factor: 0.6301).
(3) Appropriate amounts of saline, the 90 kU/mL u-PA solution, and the 0.0050 mg/mL compound A solution were mixed to respectively prepare administration solutions for a u-PA (30 kU/kg) group, a compound A (2.5 μg/kg) group, and a combination group of u-PA (30 kU/kg) and compound A (2.5 μg/kg).
(4) 5 mL of saline was added to 10 mL (standard) of a tissue factor (Dade (registered trademark) Innovin (registered trademark), Sysmex Corp.) to prepare a tissue factor solution.
(1) Eleven-week-old male Wistar rats (Japan SLC, Inc.) were fasted from a day before the experiment. On the basis of their body weights measured in the morning on the day of the experiment, 8 rats were assigned to each of 4 groups: a control (saline) group, a u-PA (30 kU/kg) group, a compound A (2.5 μg/kg) group, and a combination group of u-PA (30 kU/kg) and compound A (2.5 μg/kg). […]
(2) For each group, the basic statistics (mean and standard error) of the D-dimer levels were calculated and used as results relating to fibrinolytic activity (Table 2). […]

The test system is the same in assay [2]. Description: Test on combined use with t-PA: tissue factor-infused rats, plasma D-dimer level as index for fibrinolytic activity. The conditions noted are these: for D-dimer level Mean: jugular vein, blood at 45 min, N=7, control 5.0. It counts as in vivo, male Wistar rats. On the procedure:
1. Preparation of Administration Solution
(1) (2S)-5-Amino-2-{[1-(trans-4-methylcyclohexyl)-1H-imidazol-4-yl]methyl}valeric acid p-toluenesulfonate anhydrate (hereinafter, referred to as “compound A”) was dissolved in saline to prepare a 1.0 mg/mL solution. The solution was further diluted to 0.0050 mg/mL using saline. The dose of compound A was indicated in terms of a free form (conversion factor: 0.6301).
(2) t-PA (alteplase (Activacin (registered trademark) for Injection 6,000,000), Kyowa Hakko Kirin Co., Ltd.) was adjusted to 600,000 I.U./mL (which was defined as 1.0 mg/mL) with injectable water included therein. The resulting solution was further diluted to 0.17, 0.083, and 0.042 mg/mL using saline.
(3) The 0.0050 mg/mL compound A solution was mixed with an equal amount of saline or the 0.042 mg/mL t-PA solution to respectively prepare administration solutions for a compound A (2.5 μg/kg) group and a combination group. The 0.17, 0.083, and 0.042 mg/mL t-PA solutions were mixed with an equal amount of saline to respectively prepare administration solutions for t-PA (0.083, 0.042, and 0.021 mg/kg) groups.
(4) 4 mL of saline was added to 10 mL (standard) of a tissue factor (Dade (registered trademark) Innovin (registered trademark), Sysmex Corp.) to prepare a tissue factor solution.
(1) Ten-week-old male Wistar rats (Japan SLC, Inc.) were fasted from a day before the experiment. On the basis of their body weights measured in the morning on the day of the experiment, 7 rats were assigned to each of 6 groups: a control (saline) group, a compound A (2.5 μg/kg) group, t-PA (0.021, 0.042, and 0.083 mg/kg) groups, and a combination group of compound A (2.5 μg/kg) and t-PA (0.021 mg/kg).
(2) These rats were anesthetized by the administration of 100 mg/kg thiopental sodium (Ravonal (registered trademark), Mitsubishi Tanabe Pharma Corp.), and the tissue factor solution was continuously administered at 7.5 mL/kg/hr for 20 minutes from the jugular veins. 25 minutes after the start of the administration of the tissue factor, the administration solution for each group was rapidly administered from the jugular veins. 45 minutes after the start of the administration of the tissue factor, blood was collected from the jugular veins into syringes supplemented with citric acid in advance, and plasma was prepared by centrifugation. The plasma was diluted 20-fold using a factor diluent (LSI Medience Corp.). D-dimer levels were measured using LPIA-Ace D-D dimer II and ACL TOP 500 CTS (Instrumentation Laboratory) and used as an index for fibrinolytic activity (FIG. 1).
(1) Microsoft Excel 2003 and SAS System Release 8.2 were used in statistical analysis.
(2) For each group, the basic statistics (mean and standard error) of the D-dimer levels were calculated and used as results relating to fibrinolytic activity (Table 1).
(3) The comparison of the compound A (2.5 μg/kg) group with the control (saline) group was carried out by the Student's t test. The calculated P value was rounded off and indicated down to four decimal places, and the significance level was set to two-sided 5%.
(4) The comparison of the t-PA (0.021, 0.042, and 0.083 mg/kg) groups with the control (saline) group was carried out by the parametric Dunnett's test. The calculated P value was rounded off and indicated down to four decimal places, and the significance level was set to two-sided 5%.
(5) The comparison of the compound A (2.5 μg/kg) group or the t-PA (0.021 mg/kg) single administration group with the combination group was carried out by the parametric Dunnett's test. The calculated P value was rounded off and indicated down to four decimal places, and the significance level was set to two-sided 5%.
(6) The comparison of the compound A (2.5 μg/kg) group or the t-PA (0.021 mg/kg) single administration group with the combination group was carried out by two-way ANOVA. […]

With `C[C@H]1CC[C@H](n2cnc(C[C@H](CCCN)C(=O)O)c2)CC1.Cc1ccc(S(=O)(=O)O)cc1` (relative stereo) [Compound A, (2S)-5-Amino-2-{[1-(trans-4-methylcyclohexyl)-1H-imidazol-4-yl]methyl}valeric acid p-toluenesulfonate anhydrate], the “D-dimer level Mean” value in assay [1] (compound A 2.5 μg/kg (free form) alone, jugular vein, blood at 45 min, N=8, control 24.2) turned out to be 103.8 µg/mL; in assay [2] (compound A 2.5 μg/kg (free form) alone, 25 min after start of tissue factor), 26.4 µg/mL. Also, the “fibrinolytic activity (D-dimer level) with respect to the control group” value in assay [1] (compound A 2.5 μg/kg single administration, Student's t test, P=0.0019) is on record as “exhibited significantly excellent fibrinolytic activity”. Also, the “fibrinolytic activity (D-dimer level) with respect to the control (saline) group” value in assay [2] (compound A 2.5 μg/kg, Student's t test, P=0.1431) is “did not exhibit significantly excellent fibrinolytic activity”.
On to “t-PA: tissue plasminogen activator, alteplase (Activacin for Injection 6,000,000, Kyowa Hakko Kirin)”, for which the “D-dimer level Mean” value in assay [2] (t-PA 0.021 mg/kg alone) came out at 25.0 µg/mL; in assay [2] (t-PA 0.042 mg/kg alone), 95.2 µg/mL; in assay [2] (t-PA 0.083 mg/kg alone), 254.7 µg/mL. The “fibrinolytic activity (D-dimer level) with respect to the control (saline) group” value in assay [2] (t-PA 0.021 mg/kg, parametric Dunnett's test, P=0.3080) is reported as “did not exhibit significantly excellent fibrinolytic activity”; in assay [2] (t-PA 0.042 mg/kg, parametric Dunnett's test, P<0.0001) it was “exhibited significantly excellent fibrinolytic activity”; in assay [2] (t-PA 0.083 mg/kg, parametric Dunnett's test, P<0.0001), “exhibited significantly excellent fibrinolytic activity”.
